Laboratory results reported in the supplement of paper PMC11208160.

experiment: recombinant UMI read abundance after kanamycin selection (control-corrected) (log10(CPM+1)); higher = more efficient recombination; extreme values may be limits of the assay; sequences stand for … in AGTGCAGAGAAAATCGGCCAGTTTTCTCTGCCTGCAGTCCGCATGCCGTGGGACCCCTTGGGTTCTAACCTGTTGCCTAGATTTATGCAGCGGACTGCCTTTCTCCCAAAGTGATAAACCGG…AGGTTGGTTTCACT; site = the 11-nt donor
In short: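 Two replicates each of selected and unselected plating were used in this pooled Escherichia coli screen of donor and donor-binding-loop pairs for the IS621 bridge recombinase. Selection was with IPTG (0.07 mM) and kanamycin. Counts of recombinant UMIs, amplified across the donor–target junction, were converted to CPM, averaged, scaled by control-derived factors and reported as log10(CPM+1).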
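Further: IS621 bridge recombinase in Escherichia coli cells against a fixed T5 target plasmid.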

Sequence | recombinant UMI read abundance (log10)
TTAGCTGCATGGACCGGTTTTCCCGGTAATCCGTATTTGGG (site TTAGCTGCTCC) | 0.0113
TTAGCTGCATGGACCGGTTTTCCCGGTAATCCGTATTTGGG (site TTAGCTGCTCG) | 0.0143
TTAGCTGCATGGACCGGTTTTCCCGGTAATCCGTATTTGGG (site TTAGCTGCTCT) | 0
TTAGCTGCATGGACCGGTTTTCCCGGTAATCCGTATTTGTG (site ATAGCTGCTCA) | 0.183
TTAGCTGCATGGACCGGTTTTCCCGGTAATCCGTATTTGTG (site CTAGCTGCTCA) | 0.221
TTAGCTGCATGGACCGGTTTTCCCGGTAATCCGTATTTGTG (site GTAGCTGCTCA) | 0.0161
TTAGCTGCATGGACCGGTTTTCCCGGTAATCCGTATTTGTG (site TAAGCTGCTCA) | 0.00653
TTAGCTGCATGGACCGGTTTTCCCGGTAATCCGTATTTGTG (site TCAGCTGCTCA) | 0.0262
TTAGCTGCATGGACCGGTTTTCCCGGTAATCCGTATTTGTG (site TGAGCTGCTCA) | 0.0117
TTAGCTGCATGGACCGGTTTTCCCGGTAATCCGTATTTGTG (site TTAACTGCTCA) | 0.0107
TTAGCTGCATGGACCGGTTTTCCCGGTAATCCGTATTTGTG (site TTACCTGCTCA) | 0.00862
TTAGCTGCATGGACCGGTTTTCCCGGTAATCCGTATTTGTG (site TTAGATGCTCA) | 0.0477
TTAGCTGCATGGACCGGTTTTCCCGGTAATCCGTATTTGTG (site TTAGCAGCTCA) | 0.00587
TTAGCTGCATGGACCGGTTTTCCCGGTAATCCGTATTTGTG (site TTAGCCGCTCA) | 0
TTAGCTGCATGGACCGGTTTTCCCGGTAATCCGTATTTGTG (site TTAGCGGCTCA) | 0.00865
TTAGCTGCATGGACCGGTTTTCCCGGTAATCCGTATTTGTG (site TTAGCTACTCA) | 0.0282
TTAGCTGCATGGACCGGTTTTCCCGGTAATCCGTATTTGTG (site TTAGCTCCTCA) | 0.0123
TTAGCTGCATGGACCGGTTTTCCCGGTAATCCGTATTTGTG (site TTAGCTGCTAA) | 0.0166
TTAGCTGCATGGACCGGTTTTCCCGGTAATCCGTATTTGTG (site TTAGCTGCTCA) | 0.543
TTAGCTGCATGGACCGGTTTTCCCGGTAATCCGTATTTGTG (site TTAGCTGCTCC) | 0.0667
TTAGCTGCATGGACCGGTTTTCCCGGTAATCCGTATTTGTG (site TTAGCTGCTCG) | 0.0153
TTAGCTGCATGGACCGGTTTTCCCGGTAATCCGTATTTGTG (site TTAGCTGCTCT) | 0.162
TTAGCTGCATGGACCGGTTTTCCCGGTAATCCGTATTTGTG (site TTAGCTGCTGA) | 0.631
TTAGCTGCATGGACCGGTTTTCCCGGTAATCCGTATTTGTG (site TTAGCTGCTTA) | 0.192
TTAGCTGCATGGACCGGTTTTCCCGGTAATCCGTATTTGTG (site TTAGCTTCTCA) | 0.00647

Sequence | recombinant UMI read abundance (log10)
TTAGCTGCATGGACCGGTTTTCCCGGTAATCCGTATTTGTG (site TTAGGTGCTCA) | 0.0094
TTAGCTGCATGGACCGGTTTTCCCGGTAATCCGTATTTGTG (site TTAGTTGCTCA) | 0.00547
TTAGCTGCATGGACCGGTTTTCCCGGTAATCCGTATTTGTG (site TTATCTGCTCA) | 0.0225
TTAGCTGCATGGACCGGTTTTCCCGGTAATCCGTATTTGTG (site TTCGCTGCTCA) | 0.00425
TTAGCTGCATGGACCGGTTTTCCCGGTAATCCGTATTTGTG (site TTGGCTGCTCA) | 0.0755
TTAGCTGCATGGACCGGTTTTCCCGGTAATCCGTATTTGTG (site TTTGCTGCTCA) | 0.00733
TTAGGTGCATGGACCGGTTTTCCCGGTAATCCGTATTTGGT (site TTAGGTGCTAC) | 1.17
TTAGGTGCATGGACCGGTTTTCCCGGTAATCCGTATTTGTG (site TTAGATGCTCA) | 0.787
TTAGGTGCATGGACCGGTTTTCCCGGTAATCCGTATTTGTG (site TTAGCTGCTCA) | 0.0453
TTAGGTGCATGGACCGGTTTTCCCGGTAATCCGTATTTGTG (site TTAGGTGCTCA) | 0.831
TTAGGTGCATGGACCGGTTTTCCCGGTAATCCGTATTTGTG (site TTAGTTGCTCA) | 0.0384
TTAGTAACATGGACCGGTTTTCCCGGTAATCCGTATTTGAC (site CTAGTATCTGT) | 1.07
TTAGTAACATGGACCGGTTTTCCCGGTAATCCGTATTTGAC (site TTAGTAACTGT) | 2.16
TTAGTATCATGGACCGGTTTTCCCGGTAATCCGTATTTGCA (site ACAGTATCTTG) | 1.99
TTAGTATCATGGACCGGTTTTCCCGGTAATCCGTATTTGCA (site TTAGTATCTTG) | 1.42
TTAGTCTCATGGACCGGTTTTCCCGGTAATCCGTATTTGAT (site TTAGTCTCTAT) | 2.82
TTAGTTACATGGACCGGTTTTCCCGGTAATCCGTATTTGCC (site TTAGTTACTGG) | 2.18
TTATACTCATGGACCGGTTTTCCCGGTAATCCGTATTTGCA (site TAATACTCTTG) | 1.93
TTATACTCATGGACCGGTTTTCCCGGTAATCCGTATTTGCA (site TCATACTCTTG) | 1.9
TTATACTCATGGACCGGTTTTCCCGGTAATCCGTATTTGCA (site TGATACTCTTG) | 2.05
TTATACTCATGGACCGGTTTTCCCGGTAATCCGTATTTGCA (site TTATACTCTTG) | 2.72
TTATCATCATGGACCGGTTTTCCCGGTAATCCGTATTTGAG (site TTATCATCTCT) | 0.385
TTATGACCATGGACCGGTTTTCCCGGTAATCCGTATTTGAC (site TTATGACCTGT) | 0
TTATGCACATGGACCGGTTTTCCCGGTAATCCGTATTTGGC (site TTATGCACTGC) | 1.93
TTATGTCCATGGACCGGTTTTCCCGGTAATCCGTATTTGTA (site TTATGTCCTTA) | 0.134

Sequence | recombinant UMI read abundance (log10)
TTATGTCCATGGACCGGTTTTCCCGGTAATCCGTATTTGTC (site TTATGTCCTGA) | 0.363
TTCAAACCATGGACCGGTTTTCCCGGTAATCCGTATTTGCG (site TTCAAACCTCG) | 0
TTCAAGACATGGACCGGTTTTCCCGGTAATCCGTATTTGCC (site TTCAAGACTGG) | 0
TTCACCGCATGGACCGGTTTTCCCGGTAATCCGTATTTGCG (site TACACCGCTCG) | 0.00969
TTCACCGCATGGACCGGTTTTCCCGGTAATCCGTATTTGCG (site TCCACCGCTCG) | 0.017
TTCACCGCATGGACCGGTTTTCCCGGTAATCCGTATTTGCG (site TGCACCGCTCG) | 0.0109
TTCACCGCATGGACCGGTTTTCCCGGTAATCCGTATTTGCG (site TTCACCGCTCG) | 0.0246
TTCACCTCATGGACCGGTTTTCCCGGTAATCCGTATTTGGT (site TTCACCTCTAC) | 0
TTCACTACATGGACCGGTTTTCCCGGTAATCCGTATTTGAG (site TTCACTACTCT) | 0.00204
TTCACTCCATGGACCGGTTTTCCCGGTAATCCGTATTTGAG (site TTCACTCCTCT) | 0
TTCATTGCATGGACCGGTTTTCCCGGTAATCCGTATTTGAA (site TTCATTGCTTT) | 0
TTCCACCCATGGACCGGTTTTCCCGGTAATCCGTATTTGAC (site TTCCACCCTGT) | 0
TTCCCTTCATGGACCGGTTTTCCCGGTAATCCGTATTTGCA (site TTCCCTTCTTG) | 0
TTCCGCTCATGGACCGGTTTTCCCGGTAATCCGTATTTGTG (site TTCCGCTCTCA) | 0
TTCCTTTCATGGACCGGTTTTCCCGGTAATCCGTATTTGAT (site TTCCTTTCTAT) | 0
TTCGACCCATGGACCGGTTTTCCCGGTAATCCGTATTTGGC (site TTCGACCCTGC) | 0
TTCGACTCATGGACCGGTTTTCCCGGTAATCCGTATTTGAC (site TTCGACTCTGT) | 1.03
TTCGACTCATGGACCGGTTTTCCCGGTAATCCGTATTTGTT (site TTCGACTCTAA) | 1.01
TTCGCGCCATGGACCGGTTTTCCCGGTAATCCGTATTTGTA (site TTCGCGCCTTA) | 0.00689
TTCGCTGCATGGACCGGTTTTCCCGGTAATCCGTATTTGGG (site TTCGCTGCTCC) | 0.00922
TTCGGTGCATGGACCGGTTTTCCCGGTAATCCGTATTTGCC (site TTCGGTGCTGG) | 0
TTCGGTTCATGGACCGGTTTTCCCGGTAATCCGTATTTGAC (site TTCGGTTCTGT) | 0
TTCGGTTCATGGACCGGTTTTCCCGGTAATCCGTATTTGGA (site TTCGGTTCTTC) | 0
TTCTAAACATGGACCGGTTTTCCCGGTAATCCGTATTTGCA (site TTCTAAACTTG) | 2.65
TTCTATTCATGGACCGGTTTTCCCGGTAATCCGTATTTGCT (site TTCTATTCTAG) | 0
